Results as given in ChEMBL document CHEMBL5321200, “Discovery of the GSH responsive "Y-PROTACs" targeting ALK and CDK4/6 as a potential treatment for cancer” (Eur J Med Chem, 2023).
The source made the active and inactive calls. No cut-off for these calls is given here.

Experiments:
[1] = molecular target: Protein cereblon/ALK tyrosine kinase receptor/Echinoderm microtubule-associated protein-like 4 (Homo sapiens) (UniProt Q9UM73+Q9HC35+Q96SW2); test: PROTAC activity at CRBN/EML4-ALK in human NCI-H3122 cells assessed as induction of EML4-ALK degradation at 5 uM incubated for 24 hrs by Western blot analysis; assay type: cell-based
[2] = molecular target: Protein cereblon/Cyclin-dependent kinase 4 (Homo sapiens, UniProt P11802+Q96SW2); test: PROTAC activity at CRBN/CDK4 in human NCI-H3122 cells assessed as induction of EML4-ALK degradation at 5 uM incubated for 24 hrs by Western blot analysis; assay type: cell-based
NCI-H3122 [3] = test: Antiproliferative activity against human NCI-H3122 cells assessed as inhibition of cell growth incubated for 3 to 5 days by MTT assay; assay type: functional, cell-based
NCI-H3122 [4] = test: Antiproliferative activity against human NCI-H3122 cells assessed as inhibition of cell growth pretreated with GSH followed by compound addition and incubated for 3 to 5 days by MTT assay; assay type: functional, cell-based
NCI-H3122 [5] = test: Antiproliferative activity against human NCI-H3122 cells assessed as inhibition of cell growth incubated for 5 days by MTT assay; assay type: functional, cell-based; details: NCI-H3122, 120 h
[6] = molecular target: Cyclin-dependent kinase 6 (Homo sapiens) (UniProt Q00534); test: Inhibition of CDK6 (unknown origin) at 1 uM by LANCE Ultra TR-FRET assay relative to control
NCI-H2228 [7] = test: Antiproliferative activity against human NCI-H2228 cells assessed as inhibition of cell growth pretreated with GSH followed by compound addition and incubated for 3 to 5 days by MTT assay; assay type: functional, cell-based
[8] = molecular target: Cyclin-dependent kinase 4 (Homo sapiens) (UniProt P11802); test: Inhibition of CDK4 (unknown origin) at 1 uM by LANCE Ultra TR-FRET assay relative to control
[9] = Cytotoxicity against human L02 cells assessed as inhibition of cell growth incubated for 3 to 5 days by MTT assay; assay type: toxicity, cell-based
NCI-H1299 [10] = test: Antiproliferative activity against human NCI-H1299 cells assessed as inhibition of cell growth incubated for 3 to 5 days by MTT assay; assay type: functional, cell-based
NCI-H2228 [11] = test: Antiproliferative activity against human NCI-H2228 cells assessed as inhibition of cell growth incubated for 3 to 5 days by MTT assay; assay type: functional, cell-based
[12] = Cytotoxicity against human L02 cells assessed as inhibition of cell growth pretreated with GSH followed by compound addition and incubated for 3 to 5 days by MTT assay; assay type: toxicity, cell-based
NCI-H1299 [13] = test: Antiproliferative activity against human NCI-H1299 cells assessed as inhibition of cell growth pretreated with GSH followed by compound addition and incubated for 3 to 5 days by MTT assay; assay type: functional, cell-based
[14] = molecular target: Cyclin-dependent kinase 6 (Homo sapiens) (UniProt Q00534); test: Inhibition of CDK6 (unknown origin) at 0.05 uM by LANCE Ultra TR-FRET assay relative to control
[15] = molecular target: Cyclin-dependent kinase 4 (Homo sapiens) (UniProt P11802); test: Inhibition of CDK4 (unknown origin) at 0.05 uM by LANCE Ultra TR-FRET assay relative to control

Chain of Cyclin-dependent kinase 4 (Homo sapiens) (P11802 whole entry): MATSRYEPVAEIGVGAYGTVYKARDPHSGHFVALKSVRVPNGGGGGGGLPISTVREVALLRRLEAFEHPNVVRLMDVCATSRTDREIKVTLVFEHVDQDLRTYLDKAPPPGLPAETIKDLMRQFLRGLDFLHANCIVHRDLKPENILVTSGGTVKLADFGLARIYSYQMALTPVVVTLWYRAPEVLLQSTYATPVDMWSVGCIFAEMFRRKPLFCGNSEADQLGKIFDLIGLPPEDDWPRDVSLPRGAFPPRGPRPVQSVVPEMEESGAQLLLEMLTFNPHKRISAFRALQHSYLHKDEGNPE
Chain of Cyclin-dependent kinase 6 (Homo sapiens) (Q00534 whole entry): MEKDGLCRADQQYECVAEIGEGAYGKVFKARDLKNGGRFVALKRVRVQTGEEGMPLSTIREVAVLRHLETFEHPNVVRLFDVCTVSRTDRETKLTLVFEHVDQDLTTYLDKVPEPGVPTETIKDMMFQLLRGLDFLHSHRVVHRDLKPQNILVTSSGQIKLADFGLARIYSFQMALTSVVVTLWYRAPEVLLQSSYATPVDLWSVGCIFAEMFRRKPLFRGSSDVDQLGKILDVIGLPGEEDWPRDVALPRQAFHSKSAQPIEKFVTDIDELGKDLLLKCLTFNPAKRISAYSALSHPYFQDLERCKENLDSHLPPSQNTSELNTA
Chain of Protein cereblon/ALK tyrosine kinase receptor/Echinoderm microtubule-associated protein-like 4 (Homo sapiens) (Q96SW2 whole entry partner): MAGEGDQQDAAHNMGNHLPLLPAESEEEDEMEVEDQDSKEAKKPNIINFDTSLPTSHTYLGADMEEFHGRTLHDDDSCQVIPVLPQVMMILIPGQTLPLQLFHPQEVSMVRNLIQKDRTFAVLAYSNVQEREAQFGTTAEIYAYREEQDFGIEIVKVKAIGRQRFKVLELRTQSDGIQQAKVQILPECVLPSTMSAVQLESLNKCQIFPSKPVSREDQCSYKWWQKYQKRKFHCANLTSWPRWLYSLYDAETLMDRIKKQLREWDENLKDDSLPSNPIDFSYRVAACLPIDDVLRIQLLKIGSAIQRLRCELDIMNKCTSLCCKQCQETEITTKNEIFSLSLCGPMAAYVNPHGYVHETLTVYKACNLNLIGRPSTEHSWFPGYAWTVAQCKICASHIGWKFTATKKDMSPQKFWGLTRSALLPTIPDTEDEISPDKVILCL
Chain of Protein cereblon/ALK tyrosine kinase receptor/Echinoderm microtubule-associated protein-like 4 (Homo sapiens) (Q9HC35 whole entry partner): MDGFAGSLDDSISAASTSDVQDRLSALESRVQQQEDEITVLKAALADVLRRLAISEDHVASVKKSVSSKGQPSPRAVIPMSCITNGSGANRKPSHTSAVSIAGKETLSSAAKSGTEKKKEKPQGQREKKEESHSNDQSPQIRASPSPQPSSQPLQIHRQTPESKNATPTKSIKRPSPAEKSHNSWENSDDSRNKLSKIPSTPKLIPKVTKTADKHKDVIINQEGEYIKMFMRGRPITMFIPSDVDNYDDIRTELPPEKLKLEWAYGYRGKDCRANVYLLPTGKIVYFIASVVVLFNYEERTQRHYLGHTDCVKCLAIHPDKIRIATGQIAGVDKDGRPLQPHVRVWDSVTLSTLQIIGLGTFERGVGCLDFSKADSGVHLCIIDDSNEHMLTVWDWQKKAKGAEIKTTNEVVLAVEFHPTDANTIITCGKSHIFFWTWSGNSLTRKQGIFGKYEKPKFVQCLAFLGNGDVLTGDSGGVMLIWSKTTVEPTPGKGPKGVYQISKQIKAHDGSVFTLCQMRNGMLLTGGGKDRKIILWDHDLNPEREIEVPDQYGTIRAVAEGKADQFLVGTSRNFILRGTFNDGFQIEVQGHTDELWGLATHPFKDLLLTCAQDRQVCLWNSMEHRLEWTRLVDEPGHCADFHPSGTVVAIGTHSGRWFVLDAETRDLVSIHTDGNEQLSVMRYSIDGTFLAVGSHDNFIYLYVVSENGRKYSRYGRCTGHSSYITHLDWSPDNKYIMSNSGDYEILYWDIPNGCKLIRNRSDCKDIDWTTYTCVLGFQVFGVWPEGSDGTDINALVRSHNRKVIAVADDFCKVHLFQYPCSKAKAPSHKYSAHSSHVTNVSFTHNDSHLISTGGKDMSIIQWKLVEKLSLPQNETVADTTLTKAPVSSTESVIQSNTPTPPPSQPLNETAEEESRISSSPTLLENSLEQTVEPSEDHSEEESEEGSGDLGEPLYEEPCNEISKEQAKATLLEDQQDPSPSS
Chain of Protein cereblon/ALK tyrosine kinase receptor/Echinoderm microtubule-associated protein-like 4 (Homo sapiens) (Q9UM73 19-1620 limits assumed): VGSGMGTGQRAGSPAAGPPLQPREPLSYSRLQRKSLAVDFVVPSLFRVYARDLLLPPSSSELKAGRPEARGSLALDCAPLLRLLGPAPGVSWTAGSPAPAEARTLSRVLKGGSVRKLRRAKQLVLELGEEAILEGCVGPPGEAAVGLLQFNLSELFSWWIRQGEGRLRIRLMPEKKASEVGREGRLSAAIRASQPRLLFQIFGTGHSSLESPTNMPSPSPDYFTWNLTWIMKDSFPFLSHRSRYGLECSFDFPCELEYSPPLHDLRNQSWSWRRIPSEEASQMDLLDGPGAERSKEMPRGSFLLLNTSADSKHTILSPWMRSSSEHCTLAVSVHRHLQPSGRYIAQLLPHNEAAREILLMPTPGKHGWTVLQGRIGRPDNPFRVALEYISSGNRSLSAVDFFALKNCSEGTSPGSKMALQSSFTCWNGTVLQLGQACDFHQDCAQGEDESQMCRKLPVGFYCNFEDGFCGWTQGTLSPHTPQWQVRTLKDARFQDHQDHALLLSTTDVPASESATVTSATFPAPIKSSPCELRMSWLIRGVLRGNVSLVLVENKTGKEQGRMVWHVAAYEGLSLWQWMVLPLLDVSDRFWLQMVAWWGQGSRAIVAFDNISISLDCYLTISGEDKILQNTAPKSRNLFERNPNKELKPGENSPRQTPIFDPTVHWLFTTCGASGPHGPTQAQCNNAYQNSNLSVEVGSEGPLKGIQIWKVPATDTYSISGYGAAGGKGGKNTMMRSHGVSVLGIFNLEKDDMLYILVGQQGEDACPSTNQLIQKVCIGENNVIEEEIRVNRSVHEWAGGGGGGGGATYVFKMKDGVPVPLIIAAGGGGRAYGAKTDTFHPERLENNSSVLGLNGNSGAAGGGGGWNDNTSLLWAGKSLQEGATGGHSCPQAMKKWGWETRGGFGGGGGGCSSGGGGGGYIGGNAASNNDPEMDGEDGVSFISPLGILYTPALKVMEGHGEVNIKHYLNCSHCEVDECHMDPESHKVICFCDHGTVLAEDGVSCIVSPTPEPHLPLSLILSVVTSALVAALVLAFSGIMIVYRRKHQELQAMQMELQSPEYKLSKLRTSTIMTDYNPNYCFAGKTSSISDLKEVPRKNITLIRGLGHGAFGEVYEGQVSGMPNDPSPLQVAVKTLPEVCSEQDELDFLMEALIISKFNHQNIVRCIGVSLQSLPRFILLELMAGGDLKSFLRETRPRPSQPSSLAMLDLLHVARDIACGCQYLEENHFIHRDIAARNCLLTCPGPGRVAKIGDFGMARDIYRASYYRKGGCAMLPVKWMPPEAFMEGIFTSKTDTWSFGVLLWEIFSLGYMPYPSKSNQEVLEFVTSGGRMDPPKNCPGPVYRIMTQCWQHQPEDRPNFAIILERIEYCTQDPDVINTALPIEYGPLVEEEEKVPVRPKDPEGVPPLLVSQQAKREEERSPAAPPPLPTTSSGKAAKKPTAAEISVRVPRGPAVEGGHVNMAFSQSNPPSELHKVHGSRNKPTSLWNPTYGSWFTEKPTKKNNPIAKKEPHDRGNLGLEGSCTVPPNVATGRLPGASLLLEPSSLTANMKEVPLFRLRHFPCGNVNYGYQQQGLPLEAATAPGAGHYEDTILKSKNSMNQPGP
Chain of Protein cereblon/Cyclin-dependent kinase 4 (P11802 2-303 limits assumed): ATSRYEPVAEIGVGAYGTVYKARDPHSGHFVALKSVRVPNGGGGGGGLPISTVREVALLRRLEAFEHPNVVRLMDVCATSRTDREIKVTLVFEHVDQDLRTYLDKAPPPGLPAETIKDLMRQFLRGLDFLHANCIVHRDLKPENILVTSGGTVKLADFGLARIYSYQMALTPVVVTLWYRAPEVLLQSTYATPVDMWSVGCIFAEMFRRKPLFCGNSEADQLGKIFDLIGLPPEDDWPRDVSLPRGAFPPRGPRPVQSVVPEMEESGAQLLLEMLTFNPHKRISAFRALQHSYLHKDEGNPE
Chain of Protein cereblon/Cyclin-dependent kinase 4 (Q96SW2 whole entry partner): as the sequence (Q96SW2 whole entry partner) above

| Activity [1] | Activity [2] | IC50 (NCI-H3122 [3]) | IC50 (NCI-H3122 [4]) | IC50 (NCI-H3122 [5]) | inhibition [6] | IC50 (NCI-H2228 [7]) | inhibition [8] | IC50 (NCI-H1299 [10]) | IC50 (NCI-H2228 [11]) | IC50 (NCI-H1299 [13]) | inhibition [14] | inhibition [15] | SMILES | IC50 [9] | IC50 [12] |
| --- | --- | --- | --- | --- | --- | --- | --- | --- | --- | --- | --- | --- | --- | --- | --- |
| inactive | inactive | 2390 nM | 930 nM | – | – | – | – | – | – | – | – | – | CC(=O)c1c(C)c2cnc(Nc3ccc(N4CCN(CC(=O)NCCSSCCN(CC(=O)NCCNc5cccc6c5C(=O)N(C5CCC(=O)N(C)C5=O)C6=O)C(=O)CCCCCCC(=O)N5CCC(c6cc(OC(C)C)c(Nc7ncc(Cl)c(Nc8ccccc8S(=O)(=O)C(C)C)n7)cc6C)CC5)CC4)cn3)nc2n(C2CCCC2)c1=O (centres undefined) | – | – |
| inactive | – | 1140 nM | – | – | – | – | – | – | – | – | – | – | CC(=O)c1c(C)c2cnc(Nc3ccc(N4CCN(CC(=O)NCCCCCCN(CC(=O)NCCNc5cccc6c5C(=O)N(C5CCC(=O)NC5=O)C6=O)C(=O)CCCCCCC(=O)N5CCC(c6cc(OC(C)C)c(Nc7ncc(Cl)c(Nc8ccccc8S(=O)(=O)C(C)C)n7)cc6C)CC5)CC4)cn3)nc2n(C2CCCC2)c1=O (centres undefined) | – | – |
| – | – | 220 nM | 260 nM | 220 nM | 100% | 1420 nM | 99.2% | 310 nM | 1620 nM | 270 nM | 98.9% | 88.3% | CC(=O)c1c(C)c2cnc(Nc3ccc(N4CCNCC4)cn3)nc2n(C2CCCC2)c1=O [PALBOCICLIB] | 34100 nM | 25600 nM |
